Among the data in patent US8604029B2, “2-[(2-substituted)-indolizin-3-yl]-2-oxo-acetamide derivatives as antifungal agents” (F2G Ltd British Body Corporate, priority 2006, dated 2013) are MIC values, retold here.

In brackets after ≈: the same amount, converted by molar mass. Some results are limits rather than exact numbers.

This test concerns Aspergillus fumigatus. Briefly: MIC measurement, YAG medium. In kind it is cell-based. To be noted: Aspergillus fumigatus; YAG medium; MIC banded into grades; strain AF293; read-out: MIC A. fumigatus. As to the method:
Between 1 and 5 mgs of compound were accurately weighed out into a sterile Eppendorf tube. The compound was dissolved in DMSO to give a solution containing […]. Tubes were stored at −20° C. until required.
On the day of testing thawed solutions were vortex mixed to ensure homogeneity. 30 μL of solution was removed and added to 570 μL of sterile water in a separate sterile Eppendorf. The thoroughly mixed solution was used to prepare a series of doubling dilutions in water, in a deep well plate. Thirteen replicate plates were prepared using a Minitrak by aspirating 20 μL from each well into eleven clear polystyrene 96 well plates.
Spores of Aspergillus spp. (Aspergillus fumigatus [two strains], Aspergillus terreus [two strains], Aspergillus niger and Aspergillus flavus) were harvested from cultures grown on Sabarauds agar for 5 days, and resuspended in PBS/Tween 80 to approx 1×10^7 cfu/mL. Other filamentous fungi (Absidia corymbifera, Fusarium solani, Rhizomucor, Scedosporium spp., Trichophyton spp.), were grown on Sabarauds agar for 2-10 days and spores/hyphae resuspended in PBS/Tween to give approx 1×10^7 cfu/mL. Candida species (Candida albicans, Candida glabrata, Candida krusei, Candida parapsilosis and Candida tropicalis) were grown on Sabarauds agar, cells were harvested from the agar using a sterile loop and resuspended in PBS/Tween 80 to approx 1×10^6 cfu/mL. Each organism suspension was diluted in RPMI medium, containing 2% glucose and 0.135 M MOPS buffer (pH 7.0) to 0.5-2×10^4 cfu/mL for Aspergillus spp. and other filamentous fungi and 0.5-2×10^3 cfu/mL for yeast. 80 μL of an organism suspension was added to each well of the plate containing drug dilutions.
This produced MIC plates with a drug range 50-0.05 mg/L and organism inocula of 1-2×10^4 cfu/mL for Aspergillus spp. and other filamentous fungi and 1-2×10^3 cfu/mL for yeasts. All plates were incubated for 24-48 hrs at 35° C. Growth was assessed by monitoring the optical density at 485 nm for each well. The MIC of a compound is the lowest drug concentration that inhibits growth of an organism by >80% compared with a drug free control. MICs are recorded as mg/L. Other growth media can be used for susceptibility testing, and the activity of the described compounds can also be assessed in a medium comprising 1% glucose, 1% ammonium chloride and 0.5% yeast extract (YAG medium). To perform MIC tests in this medium, dilutions of compounds are prepared in microtitre plates as described above. Fungal strains to be tested are grown and harvested in an identical manner to that described above, each organism suspension is then diluted in YAG medium to 0.5-2×10^4 cfu/mL for Aspergillus spp. and other filamentous fungi and 0.5-2×10^3 cfu/mL for yeast. 80 μL of an organism suspension was added to each well of the plate containing drug dilutions. This produced MIC plates with a drug range 50-0.05 mg/L and organism inocula of 1-2×10^4 cfu/mL for Aspergillus spp. and other filamentous fungi and 1-2×10^3 cfu/mL for yeasts. All plates were incubated for 24 hrs at 35° C. Growth was assessed by monitoring the optical density at 485 nm for each well. The MIC of a compound is the lowest drug concentration that inhibits growth of an organism by >70% compared with a drug free control. MICs are recorded as mg/L. In cases where the MIC of an organism is […] mg/L the MIC is repeated using a concentration range of 0.5-0.0005 mg/L. MIC tests in YAG medium have more clear-cut endpoints and have slightly lower MICs than those performed in RPMI medium.
The following organisms were tested: Absidia corymbifera, Aspergillus flavus, Aspergillus fumigatus AF293 and AF210, Aspergillus niger, Aspergillus terreus AT4 and AT49, Candida albicans, Candida glabrata, Candida krusei, Candida parapsilosis, Candida tropicalis, Fusarium solani, Rhizomucor sp., Scedosporium apiospermum, Scedosporium prolificans, Trichophyton mentagrophytes, and Trichophyton rubrum.

What is called MIC is the lowest concentration found to suppress growth.

`Cc1cc(C)nc(CCCCc2ccc(NC(=O)C(=O)c3c(-c4ccccc4)cc4ccccn34)cc2)c1` [Example 72, N-{4-[4-(4,6-Dimethyl-pyridin-2-yl)-butyl]-phenyl}-2-oxo-2-(2-phenyl-indolizin-3-yl)-acetamide]: the MIC is less than 1 µg/mL.
On to `O=C(Nc1ccc(N2CCS(=O)(=O)CC2)cc1)C(=O)c1c(-c2ccccc2)cc2ccccn12` [Example 1, N-[4-(1,1-Dioxo-1λ^6-thiomorpholin-4-yl)-phenyl]-2-oxo-2-(2-phenyl-indolizin-3-yl)-acetamide], for which the minimal inhibitory concentration (MIC) was greater than 10 µg/mL.
The same measure for `O=C(Nc1ccc(NCCOc2ccccn2)cc1)C(=O)c1c(-c2ccccc2)cc2ccccn12` [Example 90, 2-Oxo-2-(2-phenyl-indolizin-3-yl)-N-{4-[2-(pyridin-2-yloxy)-ethylamino]-phenyl}-acetamide]: less than 1 µg/mL.
In the case of `Cc1cc(C)nc(N2CCN(c3cccc(NC(=O)C(=O)c4c(-c5ccccc5)cc5ccccn45)c3)CC2)c1` [Example 48, N-{3-[4-(4,6-Dimethyl-pyridin-2-yl)-piperazin-1-yl]-phenyl}-2-oxo-2-(2-phenyl-indolizin-3-yl)-acetamide] it was less than 1 µg/mL.
Take `C=C1CCN(c2ccc(NC(=O)C(=O)c3c(-c4cccnc4C)cc4ccccn34)cc2)CC1` [Example 46, N-[4-(4-Methylene-piperidin-1-yl)-phenyl]-2-[2-(2-methyl-pyridin-3-yl)-indolizin-3-yl]-2-oxo-acetamide]: the minimal inhibitory concentration (MIC) was less than 1 µg/mL.
Consider `Cc1cc(C)nc(N2CCN(c3ccc(NC(=O)C(=O)c4c(-c5ccccc5)cc5ccc(F)cn45)cc3)CC2)c1` [Example 32, N-{4-[4-(4,6-Dimethyl-pyridin-2-yl)-piperazin-1-yl]-phenyl}-2-(6-fluoro-2-phenyl-indolizin-3-yl)-2-oxo-acetamide], for which the MIC is less than 1 µg/mL.
In the case of `COCc1cc(NC(=O)C(=O)c2c(-c3ccccc3)cc3ccccn23)ccc1N1CCN(c2cc(C)cc(C)n2)CC1` [Example 81, N-{4-[4-(4,6-Dimethyl-pyridin-2-yl)-piperazin-1-yl]-3-methoxymethyl-phenyl}-2-oxo-2-(2-phenyl-indolizin-3-yl)-acetamide] it was less than 1 µg/mL.
In the case of `CON=C1CCN(c2ccc(NC(=O)C(=O)c3c(-c4ccccc4)cc4ccccn34)cc2)CC1` [Example 2, N-[4-(4-methoxyimino-piperidin-1-yl)-phenyl]-2-oxo-2-(2-phenyl-indolizin-3-yl)-acetamide], the MIC is less than 1 µg/mL.
The same measure for `O=C(Nc1ccc(N2CCC3(CC2)OCCO3)cc1)C(=O)c1c(-c2ccccc2)cc2ccccn12` [Example 23, N-[4-(1,4-dioxa-8-aza-spiro[4.5]dec-8-yl)-phenyl}-2-oxo-2-(2-phenyl-indolizine-3-yl)-acetamide]: less than 1 µg/mL; for `Cc1c(-c2ccccc2)c2ccccn2c1C(=O)C(=O)Nc1ccc(N2CCOCC2)cc1` [Example 7, 2-(2-methyl-1-phenyl-indolizin-3-yl)-N-(4-morpholin-4-yl-phenyl)-2-oxo-acetamide]: greater than 10 µg/mL; for `Cc1cc(C)nc(N2CCN(c3ccc(NC(=O)C(=O)c4c(C(C)C)cc5ccccn45)cc3)CC2)c1` [Example 61, N-{4-[4-(4,6-Dimethyl-pyridin-2-yl)-piperazin-1-yl]-phenyl}-2-(2-isopropyl-indolizin-3-yl)-2-oxo-acetamide]: less than 1 µg/mL.
With `Cc1cc(NC(=O)C(=O)c2c(-c3ccccc3)cc3ccccn23)ccc1OCCCn1ccnc1C(C)C` [Example 12, N-{4-[3-(2-Isopropyl-imidazol-1-yl)-propoxy]-3-methyl-phenyl}-2-oxo-2-(2-phenyl-indolizin-3-yl)-acetamide], the MIC was in the range of 1 to 10 µg/mL (≈ 1.92 to 19.2 µM).
The same measure for `CN1CCN(c2ccc(NC(=O)C(=O)c3c(-c4ccccc4)cc4ccccn34)cc2-c2ncco2)CC1` [Example 19, N-[4-(4-methyl-piperazin-1-yl)-3-oxazol-2-yl-phenyl]-2-oxo-2-(2-phenyl-indolizin-3-yl)-acetamide]: greater than 10 µg/mL.
For the compound `Cc1cc(C)nc(N2CCN(c3ccc(NC(=O)C(=O)c4c(-c5ccccc5)cc5ccccn45)cc3C)CC2)c1` [Example 82, N-{4-[4-(4,6-Dimethyl-pyridin-2-yl)-piperazin-1-yl]-3-methyl-phenyl}-2-oxo-2-(2-phenyl-indolizin-3-yl)-acetamide], the MIC is less than 1 µg/mL.
`Cc1ccc(N2CCN(c3ccc(NC(=O)C(=O)c4c(-c5ccccc5)cc5ccccn45)cc3)CC2)nc1` [Example 74, N-{4-[4-(5-Methyl-pyridin-2-yl)-piperazin-1-yl]-phenyl}-2-oxo-2-(2-phenyl-indolizin-3-yl)-acetamide]: the MIC was less than 1 µg/mL.
For the compound `COCCOc1cc(C)nc(N2CCN(c3ccc(NC(=O)C(=O)c4c(-c5ccccc5)cc5ccccn45)cc3)CC2)c1` [Example 57, N-(4-{4-[4-(2-Methoxy-ethoxy)-6-methyl-pyridin-2-yl]-piperazin-1-yl}-phenyl)-2-oxo-2-(2-phenyl-indolizin-3-yl)-acetamide], the MIC was less than 1 µg/mL.
The same measure for `Cc1cc(C)nc(N2CCN(c3ccc(NC(=O)C(=O)c4c(-c5ccccc5)cc5ccccn45)c(C)c3)CC2)c1` [Example 80, N-{4-[4-(4,6-Dimethyl-pyridin-2-yl)-piperazin-1-yl]-2-methyl-phenyl}-2-oxo-2-(2-phenyl-indolizin-3-yl)-acetamide]: less than 1 µg/mL; for `Cc1cc(C)nc(OCCOc2ccc(NC(=O)C(=O)c3c(-c4ccccc4)cc4ccccn34)cc2)c1` [Example 65, N-{4-[2-(4,6-Dimethyl-pyridin-2-yloxy)-ethoxy]-phenyl}-2-oxo-2-(2-phenyl-indolizin-3-yl)-acetamide]: less than 1 µg/mL.
The same measure for `Cc1cc(C)nc(N2CCN(c3ccc(NC(=O)C(=O)c4c(C5CCN(C)CC5)cc5ccccn45)cc3)CC2)c1` [Example 63, N-{4-[4-(4,6-Dimethyl-pyridin-2-yl)-piperazin-1-yl]-phenyl}-2-[2-(1-methyl-piperidin-4-yl)-indolizin-3-yl]-2-oxo-acetamide]: greater than 10 µg/mL; for `CC(C)c1ncc(C(C)(C)c2cccc(NC(=O)C(=O)c3c(-c4ccccc4)cc4ccccn34)c2)n1C` [Example 15, N-{3-[1-(2-Isopropyl-3-methyl-3H-imidazol-4-yl)-1-methyl-ethyl]-phenyl}-2-oxo-2-(2-phenyl-indolizin-3-yl)-acetamide]: greater than 10 µg/mL; for `O=C(Nc1ccc(N2CCN(c3ccc(CN4CCOCC4)cc3)CC2)cc1)C(=O)c1c(-c2ccccc2)cc2ccccn12` [Example 56, N-{4-[4-(4-Morpholin-4-ylmethyl-phenyl)-piperazin-1-yl]-phenyl}-2-oxo-2-(2-phenyl-indolizin-3-yl)-acetamide]: less than 1 µg/mL.
In the case of `Cc1cc(C)nc(N2CCN(c3ccc(NC(=O)C(=O)c4c(C(C)(C)C)cc5ccccn45)cc3)CC2)c1` [Example 62, 2-(2-tert-Butyl-indolizin-3-yl)-N-{4-[4-(4,6-dimethyl-pyridin-2-yl)-piperazin-1-yl]-phenyl}-2-oxo-acetamide] it was greater than 10 µg/mL; in that of `Cc1ccnc(N2CCN(c3ccc(NC(=O)C(=O)c4c(-c5ccccc5)cc5ccccn45)cc3)CC2)c1` [Example 49, N-{4-[4-(4-Methyl-pyridin-2-yl)-piperazin-1-yl]-phenyl}-2-oxo-2-(2-phenyl-indolizin-3-yl)-acetamide], less than 1 µg/mL.
